Reference: patent publication US20240108006A1, “PESTICIDALLY ACTIVE HETEROAROMATIC COMPOUNDS” (SYNGENTA CROP PROTECTION AG, priority 2021, published 2024)

Tests used:
Assay type in all cases: in vivo
Plutella xylostella [1] = assay: Example B8: Plutella xylostella (diamond back moth), artificial diet 24-well, eggs; conditions: 192 h, application rate of 200 ppm, 8 days after infestation, read-out: effect in at least one of the two categories (mortality or growth inhibition)
Method in brief: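 Artificial diet in 24-well plates treated with aqueous dilutions of DMSO stock (10,000 ppm stock) and dried, then infested with Plutella eggs. Mortality and growth inhibition scored versus untreated samples 8 days after infestation.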

Spodoptera littoralis [2] = assay: Example B9: Spodoptera littoralis (Egyptian cotton leaf worm), cotton leaf discs, L1 larvae; conditions: foliar, 72 h, application rate of 200 ppm, 3 days after infestation, read-out: control in at least one of the three categories (mortality, anti-feedant effect, or growth inhibition)
Method in brief: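 Cotton leaf discs on agar sprayed with aqueous test solutions from 10,000 ppm DMSO stocks, dried, then infested with five L1 larvae. Mortality, anti-feeding and growth inhibition scored against untreated samples 3 days after infestation.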

Myzus persicae [3] = assay: Example B7: Myzus persicae (green peach aphid), intrinsic activity, sucrose solution 24-well; conditions: 120 h, application rate of 12.5 ppm, 5 days after infestation, read-out: control (mortality)
Method in brief: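 Compounds from 10,000 ppm DMSO stocks were mixed into sucrose solution in wells at a rate of 12.5 ppm. Aphid-infested pea seedlings were placed on a Parafilm membrane over the solution, so aphids fed through it. Mortality was scored 5 days after infestation.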

Diabrotica balteata = assay: Example B2: Diabrotica balteata (corn root worm), maize sprouts, L2 larvae; conditions: 96 h, application rate of 200 ppm, 4 days after infestation, read-out: control in at least one of the two categories (mortality or growth inhibition)
Method in brief: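 Maize sprouts on agar sprayed with aqueous test solutions made from 10,000 ppm DMSO stocks, dried, then infested with 6 to 10 L2 larvae per well. Mortality and growth inhibition assessed versus untreated samples 4 days after infestation; application rate 200 ppm.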

Chilo suppressalis = assay: Example B1: Chilo suppressalis (striped rice stemborer), artificial diet, L2 larvae; conditions: 144 h, application rate of 200 ppm, 6 days after infestation, read-out: control in at least one of the three categories (mortality, anti-feedant effect, or growth inhibition)
Method in brief: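 Artificial diet was treated with aqueous test solutions made from 10,000 ppm DMSO stocks, dried, then infested with L2 larvae (6-8 per well). Mortality, anti-feeding effect and growth inhibition were scored against untreated samples 6 days after infestation, and control was counted when any category exceeded untreated.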

Myzus persicae [4] = assay: Example B6: Myzus persicae (green peach aphid), systemic activity, pea seedlings; conditions: 144 h, test rate of 24 ppm, 6 days after placing seedlings into test solutions
Experimental: Example B6: Myzus persicae (Green Peach Aphid). Systemic Activity
Roots of pea seedlings infested with an aphid population of mixed ages were placed directly into aqueous test solutions prepared from 10,000 DMSO stock solutions. The samples were assessed for mortality 6 days after placing seedlings into test solutions.

Myzus persicae [5] = assay: Example B5: Myzus persicae (green peach aphid), feeding/contact activity; conditions: 144 h, application rate of 200 ppm, 6 days after infestation
Experimental: Example B5: Myzus persicae (Green Peach Aphid):Feeding/Contact Activity
Sunflower leaf discs were placed onto agar in a 24-well microtiter plate and sprayed with aqueous test solutions prepared from 10,000 ppm DMSO stock solutions. After drying, the leaf discs were infested with an aphid population of mixed ages. The samples were assessed for mortality 6 days after infestation.

Euschistus heros = assay: Example B3: Euschistus heros (neotropical brown stink bug), soybean leaves, N2 nymphs; conditions: 120 h, application rate of 200 ppm, 5 days after infestation, read-out: control in at least one of the two categories (mortality or growth inhibition)
Experimental: Example B3: Euschistus heros (Neotropical Brown Stink Bug)
Soybean leaves on agar in 24-well microtiter plates were sprayed with aqueous test solutions prepared from 10,000 ppm DMSO stock solutions. After drying the leaves were infested with N2 nymphs. The samples were assessed for mortality and growth inhibition in comparison to untreated samples 5 days after infestation.
The following compounds gave an effect of at least 80% control in at least one of the two categories (mortality or growth inhibition) at an application rate of 200 ppm: […]

Myzus persicae [6] = assay: Example B11: Myzus persicae (green peach aphid), sucrose solution 96-well; conditions: 120 h, application rate of 50 ppm, 5 days after infestation
Source text: Example B11: Myzus persicae (Green Peach Aphid)
Test compounds prepared from 10,000 ppm DMSO stock solutions were applied by a liquid handling robot into 96-well microtiter plates and mixed with a sucrose solution. Parafilm was stretched over the 96-well microtiter plate and a plastic stencil with 96 holes was placed onto the plate. Aphids were sieved into the wells directly onto the Parafilm. The infested plates were closed with a gel blotting card and a second plastic stencil and then turned upside down. The samples were assessed for mortality 5 days after infestation.

Tetranychus urticae = assay: Example B13: Tetranychus urticae (two-spotted spider mite), feeding/contact activity; conditions: 192 h, read-out: mortality on mixed population (mobile stages)
Experimental: Example B13: Tetranychus urticae (Two-Spotted Spider Mite):Feeding/Contact Activity
Bean leaf discs on agar in 24-well microtiter plates were sprayed with aqueous test solutions prepared from 10,000 ppm DMSO stock solutions. After drying the leaf discs were infested with a mite population of mixed ages. The samples were assessed for mortality on mixed population (mobile stages) 8 days after infestation.

[7] = system: Frankliniella occidentalis; assay: Example B4: Frankliniella occidentalis (western flower thrips), feeding/contact activity; conditions: 168 h, application rate of 200 ppm, 7 days after infestation
Experimental: Example B4: Frankliniella occidentalis (Western Flower Thrips):Feeding/Contact Activity
Sunflower leaf discs were placed on agar in 24-well microtiter plates and sprayed with aqueous test solutions prepared from 10,000 DMSO stock solutions. After drying the leaf discs were infested with a Frankliniella population of mixed ages. The samples were assessed for mortality 7 days after infestation.

Plutella xylostella [8] = assay: Example B12: Plutella xylostella (diamondback moth), artificial diet 96-well; conditions: 216 h, application rate of 500 ppm, 9 days after infestation
Experimental: Example B12: Plutella xylostella (Diamondback Moth)
96-well microtiter plates containing artificial diet were treated with aqueous test solutions, prepared from 10,000 ppm DMSO stock solutions, by a liquid handling robot. After drying, eggs (-30 per well) were infested onto a netted lid which was suspended above the diet. The eggs hatch and L1 larvae move down to the diet. The samples were assessed for mortality 9 days after infestation.
The following compounds gave an effect of at least 80% average mortality at an application rate of 500 ppm: […]

Spodoptera littoralis [9] = assay: Example B10: Spodoptera littoralis (Egyptian cotton leaf worm), uptake by lettuce roots from agar; conditions: 144 h, test rate of 12.5 ppm, 6 days after infestation, read-out: effect in at least one of the three categories (mortality, anti-feeding, or growth inhibition)
Source text: Example B10: Spodoptera littoralis (Egyptian Cotton Leaf Worm)
Test compounds were applied by pipette from 10,000 ppm DMSO stock solutions into 24-well plates and mixed with agar. Lettuce seeds were placed onto the agar and the multi well plate was closed by another plate which also contained agar. After 7 days the compound was absorbed by the roots and the lettuce grew into the lid plate. The lettuce leaves were then cut off into the lid plate. Spodoptera eggs were pipetted through a plastic stencil onto a humid gel blotting paper and the lid plate was closed with it. The samples were assessed for mortality, anti-feedant effect and growth inhibition in comparison to untreated samples 6 days after infestation.
The following compounds gave an effect of at least 80% in at least one of the three categories (mortality, anti-feeding, or growth inhibition) at a test rate of 12.5 ppm: […]

C[C@H](NC(=O)N1CCc2cc(C(F)(F)F)ncc21)c1ncnn1-c1ncccn1 [Example P172, N-[(1S)-1-(2-pyrimidin-2-yl-1,2,4-triazol-3-yl)ethyl]-5-(trifluoromethyl)-2,3-dihydropyrrolo[2,3-c]pyridine-1-carboxamide]
≥ 80%: percent effect (mortality or growth inhibition) at 200 ppm (Plutella xylostella [1]) | percent control (mortality, anti-feedant effect or growth inhibition) at 200 ppm (Spodoptera littoralis [2]) | mortality at 12.5 ppm (Myzus persicae [3]) | percent control (mortality or growth inhibition) at 200 ppm (Diabrotica balteata) | percent control (mortality, anti-feedant effect or growth inhibition) at 200 ppm (Chilo suppressalis) | mortality at 24 ppm (Myzus persicae [4]) | mortality at 200 ppm (Myzus persicae [5]) | percent control (mortality or growth inhibition) at 200 ppm (Euschistus heros)

C[C@H](NC(=O)Nc1cc(OC(F)(F)C(F)F)c(Cl)cc1Cl)c1ncnn1-c1ncccn1 [Example P46, 1-[2,4-dichloro-5-(1,1,2,2-tetrafluoroethoxy)phenyl]-3-[(1S)-1-(2-pyrimidin-2-yl-1,2,4-triazol-3-yl)ethyl]urea]
≥ 80%: percent effect (mortality or growth inhibition) at 200 ppm (Plutella xylostella [1]) | mortality at 50 ppm (Myzus persicae [6]) | percent control (mortality, anti-feedant effect or growth inhibition) at 200 ppm (Spodoptera littoralis [2]) | mortality at 12.5 ppm (Myzus persicae [3]) | percent control (mortality or growth inhibition) at 200 ppm (Diabrotica balteata) | percent control (mortality, anti-feedant effect or growth inhibition) at 200 ppm (Chilo suppressalis) | mortality at 200 ppm (Myzus persicae [5]) | percent control (mortality or growth inhibition) at 200 ppm (Euschistus heros)

C[C@H](NC(=O)Nc1cnc(C(F)(F)F)cc1Cl)c1ncnn1-c1cnccn1 [Example P277, 1-[4-chloro-6-(trifluoromethyl)-3-pyridyl]-3-[(1S)-1-(2-pyrazin-2-yl-1,2,4-triazol-3-yl)ethyl]urea]
≥ 80%: mortality at 200 ppm (Tetranychus urticae) | percent effect (mortality or growth inhibition) at 200 ppm (Plutella xylostella [1]) | percent control (mortality, anti-feedant effect or growth inhibition) at 200 ppm (Spodoptera littoralis [2]) | mortality at 12.5 ppm (Myzus persicae [3]) | percent control (mortality or growth inhibition) at 200 ppm (Diabrotica balteata) | percent control (mortality, anti-feedant effect or growth inhibition) at 200 ppm (Chilo suppressalis) | mortality at 200 ppm (Myzus persicae [5]) | percent control (mortality or growth inhibition) at 200 ppm (Euschistus heros)

C[C@H](NC(=O)Nc1cnc(C(F)(F)F)cc1Cl)c1ncnn1-c1ncccn1 [Example P103, 1-[4-chloro-6-(trifluoromethyl)-3-pyridyl]-3-[(1S)-1-(2-pyrimidin-2-yl-1,2,4-triazol-3-yl)ethyl]urea]
≥ 80%: percent effect (mortality or growth inhibition) at 200 ppm (Plutella xylostella [1]) | mortality at 50 ppm (Myzus persicae [6]) | mortality at 200 ppm [7] | percent control (mortality, anti-feedant effect or growth inhibition) at 200 ppm (Spodoptera littoralis [2]) | mortality at 12.5 ppm (Myzus persicae [3]) | percent control (mortality or growth inhibition) at 200 ppm (Diabrotica balteata) | percent control (mortality, anti-feedant effect or growth inhibition) at 200 ppm (Chilo suppressalis) | mortality at 24 ppm (Myzus persicae [4]) | mortality at 200 ppm (Myzus persicae [5]) | percent control (mortality or growth inhibition) at 200 ppm (Euschistus heros)

C[C@H](NC(=O)N(C)c1cnc(C(F)(F)F)cc1Cl)c1ncnn1-c1ncccn1 [Example P235, 1-[4-chloro-6-(trifluoromethyl)-3-pyridyl]-1-methyl-3-[(1S)-1-(2-pyrimidin-2-yl-1,2,4-triazol-3-yl)ethyl]urea]
≥ 80%: percent effect (mortality or growth inhibition) at 200 ppm (Plutella xylostella [1]) | mortality at 200 ppm [7] | mortality at 12.5 ppm (Myzus persicae [3]) | percent control (mortality, anti-feedant effect or growth inhibition) at 200 ppm (Chilo suppressalis) | mortality at 24 ppm (Myzus persicae [4]) | mortality at 200 ppm (Myzus persicae [5]) | percent control (mortality or growth inhibition) at 200 ppm (Euschistus heros)

CC(NC(=O)Nc1ccc(C(F)(F)F)cc1Cl)c1ncnn1-c1ncccn1 (centres unmarked) [Example P5, 1-[2-chloro-4-(trifluoromethyl)phenyl]-3-[1-(2-pyrimidin-2-yl-1,2,4-triazol-3-yl)ethyl]urea]
≥ 80%: mortality at 500 ppm (Plutella xylostella [8]) | percent effect (mortality or growth inhibition) at 200 ppm (Plutella xylostella [1]) | mortality at 50 ppm (Myzus persicae [6]) | percent effect (mortality, anti-feeding or growth inhibition) at 12.5 ppm (Spodoptera littoralis [9]) | percent control (mortality, anti-feedant effect or growth inhibition) at 200 ppm (Spodoptera littoralis [2]) | mortality at 12.5 ppm (Myzus persicae [3]) | percent control (mortality or growth inhibition) at 200 ppm (Diabrotica balteata) | percent control (mortality, anti-feedant effect or growth inhibition) at 200 ppm (Chilo suppressalis) | percent control (mortality or growth inhibition) at 200 ppm (Euschistus heros)

CC(NC(=O)Nc1ccc(C(F)(F)F)cc1Cl)c1ncnn1-c1ccc(C#N)cn1 (centres unmarked) [Example P4, 1-[2-chloro-4-(trifluoromethyl)phenyl]-3-[1-[2-(5-cyano-2-pyridyl)-1,2,4-triazol-3-yl]ethyl]urea]
≥ 80%: mortality at 500 ppm (Plutella xylostella [8]) | percent effect (mortality or growth inhibition) at 200 ppm (Plutella xylostella [1]) | percent control (mortality, anti-feedant effect or growth inhibition) at 200 ppm (Spodoptera littoralis [2]) | percent control (mortality or growth inhibition) at 200 ppm (Diabrotica balteata) | percent control (mortality, anti-feedant effect or growth inhibition) at 200 ppm (Chilo suppressalis)

CC(NC(=O)Nc1ccc(Cl)cc1C(F)(F)F)c1ncnn1-c1ncccn1 (centres unmarked) [Example P6, 1-[4-chloro-2-(trifluoromethyl)phenyl]-3-[1-(2-pyrimidin-2-yl-1,2,4-triazol-3-yl)ethyl]urea]
≥ 80%: mortality at 500 ppm (Plutella xylostella [8]) | percent effect (mortality or growth inhibition) at 200 ppm (Plutella xylostella [1]) | mortality at 50 ppm (Myzus persicae [6]) | percent control (mortality, anti-feedant effect or growth inhibition) at 200 ppm (Spodoptera littoralis [2]) | mortality at 12.5 ppm (Myzus persicae [3]) | percent control (mortality or growth inhibition) at 200 ppm (Diabrotica balteata) | percent control (mortality, anti-feedant effect or growth inhibition) at 200 ppm (Chilo suppressalis)
